US20240150342A1, “ESTROGEN-RELATED RECEPTOR ALPHA MODULATORS” (LEAD PHARMA HOLDING B.V., priority 2019, published 2024)

Molecular target: T1, ERRα ligand binding domain (ERRα-LBD) (Homo sapiens, UniProt P11474)
T1 construct: made in house; host or cells: E. coli
T1 sequence (P11474 193-421 limits assumed): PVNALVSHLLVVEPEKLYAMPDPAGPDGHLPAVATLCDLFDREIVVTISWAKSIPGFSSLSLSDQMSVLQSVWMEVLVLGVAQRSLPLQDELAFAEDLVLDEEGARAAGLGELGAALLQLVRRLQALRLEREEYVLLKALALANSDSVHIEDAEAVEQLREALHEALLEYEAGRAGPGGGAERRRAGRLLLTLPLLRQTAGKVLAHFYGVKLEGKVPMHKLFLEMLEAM
Assay: ERRα AlphaScreen Assay
Type: biochemical
Conditions: disruption of binding of ERRα-LBD protein to biotin-PGC1α-3 co-activator peptide; read-out: mean pIC50 (converted)
From the text: This assay was based on the knowledge that nuclear receptors interact with cofactors in a ligand dependent matter. The sites of interaction have been mapped to LXXLL motifs that are present in the co-activator sequences. Short peptide sequences that contain the LXXLL motif mimic the behavior of full length co-activators.
The ERRα AlphaScreen Assay described here relies on the interaction of the co-activator peptide with purified bacterial- expressed ERRα ligand binding domain (ERRα-LBD); upon ligand binding, the ERRα protein can undergo a conformational change resulting in a loss of co-activator binding.
Compounds of the present invention were tested for their ability to disrupt binding of ERRα-LBD protein to co-activator peptide using AlphaScreen® Technology (Perkin Elmer). ERRα-LBD protein was expressed in E. coli as a 6×His Small Ubiquitin-like Modifier (SUMO) fusion. Bacterial expressed 6His-SUMO-ERRα-LBD protein was purified using affinity chromatography. All experiments were performed at room temperature in 384-well white non-binding plates (Greiner) using 50 mM Tris-HCl pH 7.5, 100 mM NaCl, 0.1% Pluronic F-127, 0.05% BSA and 5 mM TCEP as the buffer. Final DMSO concentration was 1% in the assay. Compounds were assayed in triplicate and: incubated with 0.81 nM ERRα-LBD protein and 10 μg/mL streptavidin donor beads and 10 μg/mL Ni-chelate acceptor beads for 1 hour at room temperature; followed by a 2-hour incubation with 15 nM biotin-PGC1α-3 peptide (QRRPCSELLKYLTTNDDPP) corresponding to amino acids 202 to 220.
The AlphaScreen signal was measured using an Envision Xcite plate reader (Perkin Elmer). Data was normalized, and curve fitting analysis was performed in GraphPad Prism 7 using a four-parameter dose-response fit.

| Compound | IC50 |
| --- | --- |
| COc1cc(C2CC(=O)Nc3n[nH]cc32)ccc1Oc1ccccc1OC(F)(F)F (stereo not drawn) [Example 12, 4-{3-methoxy-4-[2-(trifluoromethoxy)phenoxy]phenyl}-2H,4H,5H,6H,7H-pyrazolo[3,4-b]pyridin-6-one] | 10 to 100 nM |
| COc1cc(Oc2ccc(C3CC(=O)Nc4n[nH]cc43)cc2Br)cc(C(F)(F)F)c1 (stereo not drawn) [Example 52, 4-{3-bromo-4-[3-methoxy-5-(trifluoromethyl)phenoxy]phenyl}-2H,4H,5H,6H,7H-pyrazolo[3,4-b]pyridin-6-one] | 10 to 100 nM |
| CCc1ccccc1Oc1ccc(C2CC(=O)Nc3n[nH]cc32)cc1OC (stereo not drawn) [Example 20, 4-[4-(2-ethylphenoxy)-3-methoxyphenyl]-2H,4H,5H,6H,7H-pyrazolo[3,4-b]pyridin-6-one] | 100 to 1000 nM |
| COc1cc(C2CC(=O)Nc3n[nH]cc32)ccc1Oc1cccc(Br)c1 (stereo not drawn) [Example 14, 4-[4-(3-bromophenoxy)-3-methoxyphenyl]-2H,4H,5H,6H,7H-pyrazolo[3,4-b]pyridin-6-one] | 100 to 1000 nM |
| COc1cc(C2CC(=O)Nc3n[nH]cc32)ccc1Oc1ccccc1C12CC(C1)C2 (stereo not drawn) [Example 45, 4-[4-(2-{bicyclo[1.1.1]pentan-1-yl}phenoxy)-3-methoxyphenyl]-2H,4H,5H,6H,7H-pyrazolo[3,4-b]pyridin-6-one] | 10 to 100 nM |
| COc1cc(C2CC(=O)Nc3n[nH]cc32)ccc1Oc1cc(Br)cc(C(F)(F)F)c1 (stereo not drawn) [Example 42, 4-{4-[3-bromo-5-(trifluoromethyl)phenoxy]-3-methoxyphenyl}-2H,4H,5H,6H,7H-pyrazolo[3,4-b]pyridin-6-one] | 10 to 100 nM |
| COc1cc(C2CC(=O)Nc3n[nH]cc32)ccc1Oc1cccc(C2CC2)c1 (stereo not drawn) [Example 31, 4-[4-(3-cyclopropylphenoxy)-3-methoxyphenyl]-2H,4H,5H,6H,7H-pyrazolo[3,4-b]pyridin-6-one] | 10 to 100 nM |
| COc1ccc(Oc2ccc(C3CC(=O)Nc4n[nH]cc43)cc2OC)c(C(C)(C)C)c1 (stereo not drawn) [Example 27, 4-[4-(2-tert-butyl-4-methoxyphenoxy)-3-methoxyphenyl]-2H,4H,5H,6H,7H-pyrazolo[3,4-b]pyridin-6-one] | ≤ 10 nM |
| COc1cc(C2CC(=O)Nc3n[nH]cc32)ccc1Oc1ccc(C#N)cc1C(F)(F)F (stereo not drawn) [Example 2, 4-(2-methoxy-4-{6-oxo-2H,4H,5H,6H,7H-pyrazolo[3,4-b]pyridin-4-yl}phenoxy)-3-(trifluoromethyl)benzonitrile] | 100 to 1000 nM |
| COc1cc(C2CC(=O)Nc3n[nH]cc32)ccc1Oc1ccccc1C(C)C (stereo not drawn) [Example 23, 4-{3-methoxy-4-[2-(propan-2-yl)phenoxy]phenyl}-2H,4H,5H,6H,7H-pyrazolo[3,4-b]pyridin-6-one] | 10 to 100 nM |
| COc1cc(C2CC(=O)Nc3n[nH]cc32)ccc1Oc1cccc(OC(F)(F)F)c1 (stereo not drawn) [Example 17, 4-{3-methoxy-4-[3-(trifluoromethoxy)phenoxy]phenyl}-2H,4H,5H,6H,7H-pyrazolo[3,4-b]pyridin-6-one] | 100 to 1000 nM |
| COc1cc(C2CC(=O)Nc3n[nH]cc32)ccc1Oc1ccccc1Br (stereo not drawn) [Example 7, 4-[4-(2-bromophenoxy)-3-methoxyphenyl]-2H,4H,5H,6H,7H-pyrazolo[3,4-b]pyridin-6-one] | 100 to 1000 nM |
| COc1cc(C2CC(=O)Nc3n[nH]cc32)ccc1Oc1ccccc1C1CC1 (stereo not drawn) [Example 28, 4-[4-(2-cyclopropylphenoxy)-3-methoxyphenyl]-2H,4H,5H,6H,7H-pyrazolo[3,4-b]pyridin-6-one] | 10 to 100 nM |

The remaining lines, values ahead:

| IC50 | Compound |
| --- | --- |
| 10 to 100 nM | COc1cc(C2CC(=O)Nc3n[nH]cc32)ccc1Oc1cc(C(F)F)cc(C(F)(F)F)c1 (stereo not drawn) [Example 77, 4-{4-[3-(difluoromethyl)-5-(trifluoromethyl)phenoxy]-3-methoxyphenyl}-2H,4H,5H,6H,7H-pyrazolo[3,4-b]pyridin-6-one] |
| 10 to 100 nM | COc1cc(C2CC(=O)Nc3n[nH]cc32)ccc1Oc1ccc(C(F)(F)F)cc1C(F)F (stereo not drawn) [Example 78, 4-{4-[2-(difluoromethyl)-4-(trifluoromethyl)phenoxy]-3-methoxyphenyl}-2H,4H,5H,6H,7H-pyrazolo[3,4-b]pyridin-6-one] |
| 100 to 1000 nM | O=C1CC(c2ccc(Oc3ccccc3S(F)(F)(F)(F)F)cc2)c2c[nH]nc2N1 (stereo not drawn) [Example 59, 4-{4-[2-(pentafluoro-λ^6-sulfanyl)phenoxy]phenyl}-2H,4H,5H,6H,7H-pyrazolo[3,4-b]pyridin-6-one] |
| 100 to 1000 nM | COc1cc(C2CC(=O)Nc3n[nH]cc32)ccc1Oc1cc(C(F)F)cc(C(F)(F)F)c1 (single isomer, unassigned; (+)) [Example 85, (+)-4-{4-[3-(difluoromethyl)-5-(trifluoromethyl)phenoxy]-3-methoxyphenyl}-2H,4H,5H,6H,7H-pyrazolo[3,4-b]pyridin-6-one] |
| 100 to 1000 nM | COc1cc(-c2cc(=O)[nH]c3n[nH]cc23)ccc1Oc1ccc(C#N)cc1C(F)(F)F [Example 71, 4-(2-methoxy-4-{6-oxo-2H,6H,7H-pyrazolo[3,4-b]pyridin-4-yl}phenoxy)-3-(trifluoromethyl)benzonitrile] |
| 100 to 1000 nM | COc1cc(C2CC(=O)Nc3n[nH]cc32)ccc1Oc1cc(C(F)(F)F)cc(C(F)(F)F)c1 (single isomer, unassigned; (+)) [Example 79, (+)-4-{4-[3,5-bis(trifluoromethyl)phenoxy]-3-methoxyphenyl}-2H,4H,5H,6H,7H-pyrazolo[3,4-b]pyridin-6-one] |
| 100 to 1000 nM | COc1cc(C2CC(=O)Nc3n[nH]cc32)ccc1Oc1cc(C)cc(C(F)(F)F)c1 (single isomer, unassigned; (+)) [Example 83, (+)-4-{3-methoxy-4-[3-methyl-5-(trifluoromethyl)phenoxy]phenyl}-2H,4H,5H,6H,7H-pyrazolo[3,4-b]pyridin-6-one] |
| 10 to 100 nM | COc1cc(C2CC(=O)Nc3n[nH]cc32)ccc1Oc1ccc(C(=O)O)cc1C(C)(C)C (stereo not drawn) [Example 61, 3-tert-butyl-4-(2-methoxy-4-{6-oxo-2H,4H,5H,6H,7H-pyrazolo[3,4-b]pyridin-4-yl}phenoxy)benzoic acid] |
